Earlier results in patent US7541158B2, “Taste receptors of the T1R family from domestic dog” (Monell Chemical Senses Center, priority 2004, dated 2009).

Assays:
dog = conditions: neurophysiological studies; mono- and disaccharides and sweeteners
dog taste nerve fibers = conditions: for response of dog taste nerve fibers that respond to sucrose: sucrose-responsive fibers

Row | Structure (SMILES) | taste response activity in the dog (dog) | behavioral preference (domestic dog; behavior said to be congenital) | response of dog taste nerve fibers that respond to sucrose (dog taste nerve fibers) | taste quality perceived by dog (domestic dog) | response of dog taste nerve fibers fired by saccharin (dog taste nerve fibers; saccharin-responsive fibers)
1 | OC[C@H]1O[C@@](CO)(O[C@H]2O[C@H](CO)[C@@H](O)[C@H](O)[C@H]2O)[C@@H](O)[C@@H]1O [sucrose] | Particularly active | shows a preference | responded | – | –
2 | O=C1NS(=O)(=O)c2ccccc21 [saccharin] | – | – | no response | bitter | fired
3 | OC[C@H]1O[C@](O)(CO)[C@@H](O)[C@@H]1O [β-D-fructose] | Particularly active | – | – | – | –
4 | O=C(CO)[C@@H](O)[C@H](O)[C@H](O)CO [D-fructose] | Particularly active | – | – | – | –
